# In ChEMBL document CHEMBL5726154, “Substituted heterocyclic derivative, preparation method and use thereof” (2019):
# Target: T1, N-acylethanolamine-hydrolyzing acid amidase (Homo sapiens, UniProt Q02083)
# T1 sequence (Q02083 whole entry): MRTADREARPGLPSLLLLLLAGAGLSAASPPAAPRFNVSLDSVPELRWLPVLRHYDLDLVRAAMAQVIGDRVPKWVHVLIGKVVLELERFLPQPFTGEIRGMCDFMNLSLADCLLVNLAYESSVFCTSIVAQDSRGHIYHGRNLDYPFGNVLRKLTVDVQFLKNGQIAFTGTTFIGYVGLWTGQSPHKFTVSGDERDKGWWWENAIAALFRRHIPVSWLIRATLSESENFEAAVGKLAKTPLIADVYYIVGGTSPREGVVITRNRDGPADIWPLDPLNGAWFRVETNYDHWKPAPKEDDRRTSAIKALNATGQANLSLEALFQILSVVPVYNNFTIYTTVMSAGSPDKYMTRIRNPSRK
# Experiment: Determining Endocannabinoid Hydrolase Activity: In the Experimental example, endocannabinoid hydrolases used were Fatty Acid Amide Hydrolase (FAAH) and N-acylethanolamide hydrolyzing acid amidase (NAAA), which were prepared by the method described in the document (PMCID: PMC3423427, PMC3723234, PMC2692831, PMC3382457). The preparation method was as followed: a plasmid (pCDNA3.1/NAAA or pCDNA3.1/FAAH) carrying a whole NAAA/FAAH gene was constructed, wherein the plasmid carried Cytomegalovirus (CMV) promoter and Neomycin selectable gene; the plasmid was transformed into HEK-293 cell via lipid medium, stable cell lines expressing NAAA/FAAH at a high level were obtained by G418 screening and Western-blot method. HEK-293 recombinant cells were cultured and collected, washed with PBS for 2-3 times, and ultrasonically treated in 20 mM Tris-HCl containing 0.32 M sucrose, then repeatedly frozen and thawed twice, and then centrifuged at 4° C., 800 g for 15 min. The supernatant (i.e., the desired protein) was collected, the protein concentration was determined by BCA method, and the protein was diluted to a concentration of 1 mg/mL, and sub-packaged and stored in a refrigerator at −80° C. for further use.In the Experimental example, PBS solution used was prepared as followed: 8 g NaCl, 0.2 g KCl, 1.44 g Na2HPO4, and 0.24 g KH2PO4 were dissolved in 1 L ultrapure water, and the resultant solution was subjected to moist heat sterilization and stored at 4° C.30 μL (1 mg/mL) endocannabinoid hydrolase was added to a sample vial, and 2 μL DMSO (Blank control group) or a different concentration of a test compound (Compounds 1-46 prepared in the Examples according to the invention) was further added. The reaction was carried out at 37° C. for 10 min. 170 μL buffer (the buffer consisted of 50 mM disodium Hydrogen Phosphate, 0.1% Triton X-100, 3 mM DTT, 150 μL) containing enzymatic hydrolysis substrate (the substrate was a heptadecenoyl ethanolamine containing a double bond and 17 carbon atoms, abbreviated as 17:1 FAE) was further added, wherein the concentration of 17:1 FAE was 5 μM. The reaction was carried out at 37° C. for 30 min, and 200 μL methanol solution containing internal standard (the internal standard was margaric acid, at a concentration of 1 nmol) was then added to stop the reaction. LC-MS was used to determine the yield of the hydrolysate 17:1 FA (i.e., a heptadecenoic acid containing a double bond) of 17:1 FAE, then a graph was plotted with Graphpad Prism 5. Thereby, the IC50 of the test compound on endocannabinoid hydrolase was determined.By the method above, the inhibitory effects of the Compounds 1-46 prepared in the invention on NAAA and FAAH were determined.
row,SMILES,IC50
1,CC(=O)C[C@@H]1COC(=O)N1C(=O)CCCCCc1ccc(C)cc1,0.45 µM
2,C[C@@H]1COC(=O)N1C(=O)CCCCCc1ccccc1,0.91 µM
3,O=C(CCCCCc1ccc2ccccc2c1)N1CCOC1=O,0.92 µM
4,CCCCCCCCCCCCCCCC(=O)N1CCNC1=O,5.4 µM
5,O=C(CCCCCc1ccc2cc(F)ccc2c1)N1CCOC1=O,5.7 µM
6,O=C(CCCCCCCc1ccccc1)N1CCOC1=O,21 µM
7,O=C(CCCCCCc1ccc(Cl)cc1Cl)N1CCOC1=O,2.2 µM
8,O=C(CCCCc1ccc(F)cc1)N1CCOC1=O,0.85 µM
9,O=C(CCCCCc1c[nH]c2ccccc12)N1CCOC1=O,23.5 µM
10,O=C1OCCN1C(=O)c1cccc(-c2ccccc2)c1,9.5 µM
11,O=C(CCCCc1ccccc1)N1CCOC1=O,11.2 µM
12,O=C(CCCCCc1ccc(Cl)cc1)N1CCOC1=O,5.1 µM
13,O=C1OCCN1C(=O)c1cccc(OCc2ccccc2)c1,78.6 µM
14,O=C(CCCCCCc1ccccc1)N1CCOC1=O,9.4 µM
15,O=C1OCCN1C(=O)c1ccc(OCc2ccccc2)cc1,3.4 µM
16,CCCCCCCCCCCCCCCC(=O)N1CCOC1=O,46.8 µM

# Now those with a lower IC50, led by results:
row,IC50,SMILES
1,0.34 µM,O=C(CCCCCc1ccsc1)N1CCOC1=O
2,0.18 µM,O=C(CCCCCC1CCCCC1)N1CCOC1=O
3,0.13 µM,O=C(CCCCCC1CCCNC1)N1CCOC1=O (stereo not given)
4,0.21 µM,O=C(CCCCCc1ccccc1)N1CCOC1=O
5,0.25 µM,O=C(CCCCCc1cccc(F)c1)N1CCOC1=O
6,0.37 µM,O=C(CCCCc1cccc(Cl)c1)N1CCOC1=O
7,0.38 µM,CC(=O)C[C@@H]1COC(=O)N1C(=O)CCCCCc1cccc(C)c1
8,0.37 µM,O=C1OCCN1C(=O)c1ccc(Oc2cccc(Cl)c2)cc1
9,0.36 µM,O=C(CCCCCc1ccoc1)N1CCOC1=O
